Reference: patent US7118895B2, “Process for producing aglycon by using diglycosidase and flavor-improved food containing the aglycon and converting agent to be used in the process” (Amano Enzyme Inc., priority 2000, dated 2006)

Tested on: Crude diglycosidase
Test: Examination of pH in the conversion into isoflavone aglycons by diglycosidase using soybean materials
Format: biochemical, Penicillium multicolor IAM7153
Set-up: Decomposition efficiency of genistin family in soymilk / Decomposition efficiency of genistin family in defatted soybean / Decomposition efficiency of daidzin family in defatted soybean: concentration or dose not given beside the values
Settings: for Decomposition efficiency of daidzin family in roasted soy flour: 55° C.
Protocol: A substrate solution of 450 μL was prepared by suspending 50 mg of each soybean material (roasted soy flour (manufactured by Fuji Shokuryo K.K.), soymilk (manufactured by Gitoh Shokuhin K.K.), defatted soybean (manufactured by Fuji Seiyu K.K.), concentrated soybean protein (manufactured by Fuji Seiyu K.K.)), and adjusting the pH to 2 to 11 with hydrochloric acid or sodium hydroxide. Each enzyme solution of pH 2–11 wherein diglycosidase activity of crude diglycosidase was adjusted to 1.88 AU/mL was added thereto in an amount of 50 μL and the whole was reacted at 55° C. at the total volume of 500 μL. To the reaction mixture was added 700 μL of ethanol after 0, 1, 3, and 6 hours of the reaction. After stirring and ultrasonication, the mixture was subjected to centrifugal separation at 15,000 rpm and 4° C. for 10 minutes. The supernatant was filtered through a filter and the existence of isoflavone glycosides and aglycon isoflavones contained in the reaction mixture was detected by HLPC (Tables 15 to 26).

[1] = pH4.8, heat treatment of enzyme: no, reaction time 0 h
[2] = pH4.8, heat treatment of enzyme: no, reaction time 1 h
[3] = pH4.8, heat treatment of enzyme: no, reaction time 3 h
[4] = pH4.8, heat treatment of enzyme: no, reaction time 6 h
[5] = pH4.8, heat treatment of enzyme: yes, reaction time 6 h

Q: Which “Decomposition efficiency of daidzin family in concentrated soybean protein” value (pH1.6, heat treatment of enzyme: no, reaction time 0 h) does the source give for `CC(=O)OC[C@H]1O[C@@H](Oc2ccc3c(=O)c(-c4ccc(O)cc4)coc3c2)[C@H](O)[C@@H](O)[C@@H]1O` [acetyldaidzin, 6″-O-acetyldaidzin] here?
A: 44.5%

Q: And the “Decomposition efficiency of daidzin family in concentrated soybean protein” value (pH1.6, heat treatment of enzyme: no, reaction time 1 h)?
A: 43.7%

Q: And the “Decomposition efficiency of daidzin family in concentrated soybean protein” value (pH1.6, heat treatment of enzyme: no, reaction time 3 h)?
A: 41.7%

Q: What about the “Decomposition efficiency of daidzin family in concentrated soybean protein” value (pH1.6, heat treatment of enzyme: no, reaction time 6 h) of the same molecule?
A: 39.4%

Q: What about the “Decomposition efficiency of daidzin family in concentrated soybean protein” value (pH1.6, heat treatment of enzyme: yes, reaction time 6 h) of the same molecule?
A: 38.1%

Q: What about the “Decomposition efficiency of daidzin family in roasted soy flour” value (pH2, heat treatment of enzyme no, reaction time 0 h) of the same molecule?
A: 47.4

Q: What about the “Decomposition efficiency of daidzin family in roasted soy flour” value (pH2, heat treatment of enzyme no, reaction time 1 h) of the same molecule?
A: 46.9

Q: And the “Decomposition efficiency of daidzin family in roasted soy flour” value (pH2, heat treatment of enzyme no, reaction time 3 h)?
A: 45.0

Q: What about the “Decomposition efficiency of daidzin family in roasted soy flour” value (pH2, heat treatment of enzyme no, reaction time 6 h) of the same molecule?
A: 42.4

Q: What about the “Decomposition efficiency of daidzin family in roasted soy flour” value (pH2, heat treatment of enzyme yes, reaction time 6 h) of the same molecule?
A: 42.4

Q: What about the “Decomposition efficiency of daidzin family in soymilk” value (“Decomposition efficiency … in soymilk” below) (pH2.3, heat treatment of enzyme: no, reaction time 0 h) of the same molecule?
A: not detected

Q: What about the “Decomposition efficiency … in soymilk” value (pH2.3, heat treatment of enzyme: no, reaction time 1 h) of the same molecule?
A: not detected

Q: And the “Decomposition efficiency … in soymilk” value (pH2.3, heat treatment of enzyme: no, reaction time 3 h)?
A: not detected

Q: What about the “Decomposition efficiency … in soymilk” value (pH2.3, heat treatment of enzyme: no, reaction time 6 h) of the same molecule?
A: not detected

Q: And the “Decomposition efficiency … in soymilk” value (pH2.3, heat treatment of enzyme: yes, reaction time 6 h)?
A: not detected

Q: What about the “Decomposition efficiency of daidzin family in defatted soybean” value (pH2.6, heat treatment of enzyme: no, reaction time 0 h) of the same molecule?
A: not detected

Q: And the “Decomposition efficiency of daidzin family in defatted soybean” value (pH2.6, heat treatment of enzyme: no, reaction time 1 h)?
A: not detected

Q: What about the “Decomposition efficiency of daidzin family in defatted soybean” value (pH2.6, heat treatment of enzyme: no, reaction time 3 h) of the same molecule?
A: not detected

Q: And the “Decomposition efficiency of daidzin family in defatted soybean” value (pH2.6, heat treatment of enzyme: no, reaction time 6 h)?
A: not detected

Q: What about the “Decomposition efficiency of daidzin family in defatted soybean” value (pH2.6, heat treatment of enzyme: yes, reaction time 6 h) of the same molecule?
A: not detected

Q: And the “Decomposition efficiency of daidzin family in concentrated soybean protein” value (pH2.7, heat treatment of enzyme: no, reaction time 0 h)?
A: 44.5%

Q: What about the “Decomposition efficiency of daidzin family in concentrated soybean protein” value (pH2.7, heat treatment of enzyme: no, reaction time 1 h) of the same molecule?
A: 46.4%

Q: And the “Decomposition efficiency of daidzin family in concentrated soybean protein” value (pH2.7, heat treatment of enzyme: no, reaction time 3 h)?
A: 46.0%

Q: And the “Decomposition efficiency of daidzin family in concentrated soybean protein” value (pH2.7, heat treatment of enzyme: no, reaction time 6 h)?
A: 45.8%

Q: And the “Decomposition efficiency of daidzin family in concentrated soybean protein” value (pH2.7, heat treatment of enzyme: yes, reaction time 6 h)?
A: 43.9%

Q: What about the “Decomposition efficiency of daidzin family in roasted soy flour” value (pH3, heat treatment of enzyme no, reaction time 0 h) of the same molecule?
A: 47.4

Q: What about the “Decomposition efficiency of daidzin family in roasted soy flour” value (pH3, heat treatment of enzyme no, reaction time 1 h) of the same molecule?
A: 46.0

Q: What about the “Decomposition efficiency of daidzin family in roasted soy flour” value (pH3, heat treatment of enzyme no, reaction time 3 h) of the same molecule?
A: 39.6

Q: What about the “Decomposition efficiency of daidzin family in roasted soy flour” value (pH3, heat treatment of enzyme no, reaction time 6 h) of the same molecule?
A: 40.7

Q: And the “Decomposition efficiency of daidzin family in roasted soy flour” value (pH3, heat treatment of enzyme yes, reaction time 6 h)?
A: 47.4

Q: What about the “Decomposition efficiency of daidzin family in defatted soybean” value (pH3.4, heat treatment of enzyme: no, reaction time 0 h) of the same molecule?
A: not detected

Q: What about the “Decomposition efficiency of daidzin family in defatted soybean” value (pH3.4, heat treatment of enzyme: no, reaction time 1 h) of the same molecule?
A: not detected

Q: And the “Decomposition efficiency of daidzin family in defatted soybean” value (pH3.4, heat treatment of enzyme: no, reaction time 3 h)?
A: not detected

Q: And the “Decomposition efficiency of daidzin family in defatted soybean” value (pH3.4, heat treatment of enzyme: no, reaction time 6 h)?
A: not detected

Q: And the “Decomposition efficiency of daidzin family in defatted soybean” value (pH3.4, heat treatment of enzyme: yes, reaction time 6 h)?
A: not detected

Q: And the “Decomposition efficiency … in soymilk” value (pH3.5, heat treatment of enzyme: no, reaction time 0 h)?
A: not detected

Q: What about the “Decomposition efficiency … in soymilk” value (pH3.5, heat treatment of enzyme: no, reaction time 1 h) of the same molecule?
A: not detected

Q: What about the “Decomposition efficiency … in soymilk” value (pH3.5, heat treatment of enzyme: no, reaction time 3 h) of the same molecule?
A: not detected

Q: And the “Decomposition efficiency … in soymilk” value (pH3.5, heat treatment of enzyme: no, reaction time 6 h)?
A: not detected

Q: And the “Decomposition efficiency … in soymilk” value (pH3.5, heat treatment of enzyme: yes, reaction time 6 h)?
A: not detected

Q: What about the “Decomposition efficiency of daidzin family in concentrated soybean protein” value (pH3.7, heat treatment of enzyme: no, reaction time 0 h) of the same molecule?
A: 44.6%

Q: And the “Decomposition efficiency of daidzin family in concentrated soybean protein” value (pH3.7, heat treatment of enzyme: no, reaction time 1 h)?
A: 41.6%

Q: What about the “Decomposition efficiency of daidzin family in concentrated soybean protein” value (pH3.7, heat treatment of enzyme: no, reaction time 3 h) of the same molecule?
A: 33.0%

Q: What about the “Decomposition efficiency of daidzin family in concentrated soybean protein” value (pH3.7, heat treatment of enzyme: no, reaction time 6 h) of the same molecule?
A: 25.2%

Q: And the “Decomposition efficiency of daidzin family in concentrated soybean protein” value (pH3.7, heat treatment of enzyme: yes, reaction time 6 h)?
A: 44.4%

Q: And the “Decomposition efficiency of daidzin family in roasted soy flour” value (pH4, heat treatment of enzyme no, reaction time 0 h)?
A: 47.7

Q: What about the “Decomposition efficiency of daidzin family in roasted soy flour” value (pH4, heat treatment of enzyme no, reaction time 1 h) of the same molecule?
A: 34.4

Q: And the “Decomposition efficiency of daidzin family in roasted soy flour” value (pH4, heat treatment of enzyme no, reaction time 3 h)?
A: 20.5

Q: And the “Decomposition efficiency of daidzin family in roasted soy flour” value (pH4, heat treatment of enzyme no, reaction time 6 h)?
A: 11.1

Q: And the “Decomposition efficiency of daidzin family in roasted soy flour” value (pH4, heat treatment of enzyme yes, reaction time 6 h)?
A: 47.9

Q: What about the “Decomposition efficiency of daidzin family in defatted soybean” value [1] of the same molecule?
A: not detected

Q: And the “Decomposition efficiency … in soymilk” value [1]?
A: not detected

Q: What about the “Decomposition efficiency of daidzin family in defatted soybean” value [2] of the same molecule?
A: not detected

Q: And the “Decomposition efficiency … in soymilk” value [2]?
A: not detected

Q: What about the “Decomposition efficiency of daidzin family in defatted soybean” value [3] of the same molecule?
A: not detected

Q: And the “Decomposition efficiency … in soymilk” value [3]?
A: not detected

Q: What about the “Decomposition efficiency of daidzin family in defatted soybean” value [4] of the same molecule?
A: not detected

Q: And the “Decomposition efficiency … in soymilk” value [4]?
A: not detected

Q: And the “Decomposition efficiency of daidzin family in defatted soybean” value [5]?
A: not detected

Q: What about the “Decomposition efficiency … in soymilk” value [5] of the same molecule?
A: not detected
